In patent US4910214A, “Optical isomer of an imidazole derivative medetomidine as an alpha-2-receptor agonist” (Farmos Yhtyma Oy, priority 1987, dated 1990):
Read-outs that look alike come from different tables or passages of the source.

Tests used:
α2 -receptors [1] = experiment: biochemical; assay type: binding, rat; settings: ratio of 3H-prazosin IC50 to 3H-clonidine IC50
Source text: (§1) The selectivity of the d-enantiomer as an α2 -agonist was studied in receptor binding experiments using rat brain membranes. […] 108, 163-9, 1985.

α2 -receptors [2] = target: T1, α2 -receptors (Rattus norvegicus, UniProt P22909); experiment: biochemical; assay type: binding
T1 construct: from tissue; host or cells: rat brain membranes
T1 sequence (P22909 1-465): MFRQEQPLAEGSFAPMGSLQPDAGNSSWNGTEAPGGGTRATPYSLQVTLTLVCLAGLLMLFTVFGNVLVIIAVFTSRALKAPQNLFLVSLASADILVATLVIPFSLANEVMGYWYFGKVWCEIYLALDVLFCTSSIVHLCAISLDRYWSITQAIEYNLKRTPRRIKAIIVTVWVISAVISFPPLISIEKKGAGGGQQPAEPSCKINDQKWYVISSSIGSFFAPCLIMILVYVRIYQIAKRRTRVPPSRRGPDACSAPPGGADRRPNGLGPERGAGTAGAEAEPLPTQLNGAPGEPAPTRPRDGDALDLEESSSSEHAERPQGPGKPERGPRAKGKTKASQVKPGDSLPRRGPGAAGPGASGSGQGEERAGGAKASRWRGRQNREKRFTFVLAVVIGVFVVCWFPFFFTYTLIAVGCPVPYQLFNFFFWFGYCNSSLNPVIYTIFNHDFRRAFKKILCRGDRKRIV
Source text: as §1

α1 -receptors = experiment: 3H-prazosin displacement, receptor binding in rat brain membranes
Source text: as §1

[3] = target: T2, presynaptic α2 -adrenoceptors (Mus musculus, UniProt Q01338); experiment: α2-agonism in vitro, isolated electrically stimulated mouse vas deferens; assay type: cell-based; settings: for EC50: negative log of molar concentration producing 50 percent of maximal inhibition of electrically induced contractions, read-out: α2 -agonism in vitro (mouse vas deferens). pD2 (converted)
T2 construct: isolated, electrically stimulated mouse was deferens preparation; from tissue; host or cells: mouse vas deferens
T2 sequence (Q01338 1-465): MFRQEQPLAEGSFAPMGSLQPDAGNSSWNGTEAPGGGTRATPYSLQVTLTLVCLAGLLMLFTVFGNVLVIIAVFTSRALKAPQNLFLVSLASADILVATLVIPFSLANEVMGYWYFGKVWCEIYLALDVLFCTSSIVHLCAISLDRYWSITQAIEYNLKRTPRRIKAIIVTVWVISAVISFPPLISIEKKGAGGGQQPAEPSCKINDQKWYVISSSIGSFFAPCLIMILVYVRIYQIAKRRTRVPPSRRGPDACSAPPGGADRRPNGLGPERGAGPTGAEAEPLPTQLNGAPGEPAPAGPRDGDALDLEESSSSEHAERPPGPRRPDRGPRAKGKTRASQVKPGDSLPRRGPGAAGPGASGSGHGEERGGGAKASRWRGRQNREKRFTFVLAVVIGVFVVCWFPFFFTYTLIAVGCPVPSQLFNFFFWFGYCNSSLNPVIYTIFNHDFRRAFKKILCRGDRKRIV
Description: α2 -agonism was determined by means of isolated, electrically stimulated mouse was deferens preparation (Marshall et al., Br. J. Pharmac. 62, 147-151, 1978). […] Results are shown in Table 1, where the α2 -agonist effect is presented as the pD2 -value (negative logarith of the molar concentration of the compound producing 50 percent of maximal inhibition.)

mice [4] = experiment: Spontaneous motility (Animex-activity meter); assay type: in vivo; settings: Mus musculus, sc, 0.5 h; s.c.; 30 minutes before two-minute measuring period; read-out: ED50 in reducing spontaneous motility in mice
mice [5] = experiment: Acetic acid-induced writhing test; assay type: in vivo; settings: Mus musculus, sc, 45 min before 1% acetic acid i.p.; writhes counted 25 min
Description: The sedative-analgesic properties of the compounds were studied in the spontaneous motility and writhing-test in the mouse. Spontaneous motility of mice and rats was measured using the Animex-activity meter. The test compounds were administered i.p. 30 minutes before the measuring periods of two minutes. In the writhing test the compounds studied and saline were administered s.c. to […], and 45 min. later 1 ml of 1% acetic acid was administered i.p. The number of writhes was recorded in the following 25 min. period (Koster et al., Fred. Proc. 18: 412, 1959).

Sprague-Dawley rats = settings: anesthetized rats; for Decrease in BP / Decrease in heart rate: femoral vein
Description: After this, the femoral artery was connected by a polyethylene tube to a blood pressure transducer. The test substance was then injected into the femoral vein and the blood pressure and the pulse frequency were registered with a recorder.

rat [6] = experiment: Elevated t-maze test, exploration of open and enclosed arms (anxiolytic effects); assay type: in vivo; settings: for Mean number of entries, closed / Mean number of entries, open / Mean number of entries, total / open/total entries: 5 minutes, n = 6
Description: The anxiolytic effects of the compounds were studied using a method described by Handley and Mithoni: Naunyn-Schmiedeb, Arch. Pharmacol. 327, 1-5, 1984. In this test the manner of exploration of open and enclosed arms in an elevated t-maze by a rat is examined. It has been shown that anxiolytic drugs increase the relative exploration of open arms. A rat is placed in the center of the t-maze and the number of open and enclosed entries is recorded during 5 minutes.

rat [7] = settings: for CSF MHPG-SO4 (% of control): 4 h after adm.
Source text: It is well known that anxiety states connected to withdrawal symptoms are due to noradrenergic hyperactivity.

SMILES: Cc1cccc(C(C)c2cnc[nH]2)c1C (racemic) [medetomidine]
- α2 /α1 -selectivity (α2 -receptors [1]): 5060
- IC50 (α2 -receptors [2]): 3.3 nM
- IC50 (α1 -receptors): 16700 nM
- EC50 [3]: 1 nM
- ED50 (mice [4]): 0.05 mg/kg
- ED50 (mice [5]): 0.02 mg/kg

SMILES: Cc1cccc([C@@H](C)c2cnc[nH]2)c1C [1-enantiomer]
- α2 /α1 -selectivity (α2 -receptors [1]): 4129
- IC50 (α2 -receptors [2]): 46 nM
- IC50 (α1 -receptors): 190000 nM
- EC50 [3]: 1000 nM
- type of agonism (mouse vas deferens) ([3]; remark in pD2 cell): partial agonist
- ED50 (mice [4]): > 10 mg/kg
- ED50 (mice [5]): > 10 mg/kg

SMILES: Clc1cccc(Cl)c1N=C1NCCN1 [clonidine, reference compound]
- IC50 (α1 -receptors): 6200 nM
- EC50 [3]: 3.16 nM
- ED50 (mice [4]): 0.3 mg/kg
- ED50 (mice [5]): 0.03 mg/kg

SMILES: Cc1cccc([C@H](C)c2cnc[nH]2)c1C [d-enantiomer]
- α2 /α1 -selectivity (α2 -receptors [1]): 45849
- IC50 (α2 -receptors [2]): 1.2 nM
- effect on blood pressure and heart rate (in words) (Sprague-Dawley rats; summary of Table 7): clear anti-hypertensive and bradycardia effects
- Decrease in BP (Sprague-Dawley rats; dose 0.001 mg/kg): -8%
- Decrease in heart rate (Sprague-Dawley rats; dose 0.001 mg/kg): -21%
- Decrease in BP (Sprague-Dawley rats; dose 0.003 mg/kg): -23%
- Decrease in heart rate (Sprague-Dawley rats; dose 0.003 mg/kg): -40%
- Decrease in BP (Sprague-Dawley rats; dose 0.01 mg/kg): -43%
- Decrease in heart rate (Sprague-Dawley rats; dose 0.01 mg/kg): -47%
- Decrease in BP (Sprague-Dawley rats; dose 0.03 mg/kg): -45%
- Decrease in heart rate (Sprague-Dawley rats; dose 0.03 mg/kg): -48%
- Decrease in BP (Sprague-Dawley rats; dose 0.1 mg/kg): -45%
- Decrease in heart rate (Sprague-Dawley rats; dose 0.1 mg/kg): -50%
- IC50 (α1 -receptors): 55000 nM
- Mean number of entries, closed (rat [6]; dose 0.0003 mg/kg): 10.6
- Mean number of entries, open (rat [6]; dose 0.0003 mg/kg): 4.8
- Mean number of entries, total (rat [6]; dose 0.0003 mg/kg): 14.0
- open/total entries (rat [6]; dose 0.0003 mg/kg): 0.20
- Mean number of entries, closed (rat [6]; dose 0.001 mg/kg): 10.6
- Mean number of entries, open (rat [6]; dose 0.001 mg/kg): 3.2
- Mean number of entries, total (rat [6]; dose 0.001 mg/kg): 13.8
- open/total entries (rat [6]; dose 0.001 mg/kg): 0.23
- Mean number of entries, closed (rat [6]; dose 0.003 mg/kg): 9.5
- Mean number of entries, open (rat [6]; dose 0.003 mg/kg): 4.0
- Mean number of entries, total (rat [6]; dose 0.003 mg/kg): 13.5
- open/total entries (rat [6]; dose 0.003 mg/kg): 0.29
- Mean number of entries, closed (rat [6]; dose 0.01 mg/kg): 8.8
- Mean number of entries, open (rat [6]; dose 0.01 mg/kg): 5.8
- Mean number of entries, total (rat [6]; dose 0.01 mg/kg): 14.6
- open/total entries (rat [6]; dose 0.01 mg/kg): 0.39
- Mean number of entries, closed (rat [6]; dose 0.03 mg/kg): 3.0
- Mean number of entries, open (rat [6]; dose 0.03 mg/kg): 2.5
- Mean number of entries, total (rat [6]; dose 0.03 mg/kg): 5.5
- open/total entries (rat [6]; dose 0.03 mg/kg): 0.45
- anxiolytic effect in the elevated t-maze test (in words) (rat [6]; summary of Table 5): anxiolytic profile
- EC50 [3]: 0.501 nM
- ED50 (mice [4]): 0.02 mg/kg
- effect on noradrenaline release (in words) (rat [7]; central and peripheral nervous systems): able to reduce noradrenaline release
- CSF MHPG-SO4 (% of control) (rat [7]; dose 3 μg/kg): -10 % of control
- CSF MHPG-SO4 (% of control) (rat [7]; dose 10 μg/kg): -20 % of control
- CSF MHPG-SO4 (% of control) (rat [7]; dose 30 μg/kg): -30 % of control
- CSF MHPG-SO4 (% of control) (rat [7]; dose 100 μg/kg): -65 % of control
- ED50 (mice [5]): 0.01 mg/kg

SMILES: Cc1cccc(Cc2c[nH]cn2)c1C [detomidine]
- IC50 (α2 -receptors [2]): 3.7 nM
- EC50 [3]: 3.16 nM
- ED50 (mice [4]): 0.3 mg/kg
- ED50 (mice [5]): 0.02 mg/kg

SMILES: CN1C(=O)CN=C(c2ccccc2)c2cc(Cl)ccc21 [diazepam, reference compound]
- Mean number of entries, closed (rat [6]; dose 1 mg/kg): 10.5
- Mean number of entries, open (rat [6]; dose 1 mg/kg): 5.2
- Mean number of entries, total (rat [6]; dose 1 mg/kg): 15.7
- open/total entries (rat [6]; dose 1 mg/kg): 0.33
